Data taken from patent publication US20090233326A1, “METHOD FOR INDUCTION OF THE DIFFERENTIATION OF VISCERAL FAT CELL” (priority 2006, published 2009).
Values belong to the substance of their own block, whether it stands above or below them.

Assays:
Format in all cases: cell-based, rat
[1] = tested on: VSC (visceral stromal cells=preadipocytes); test: Induction of VSC-to-VAC differentiation (lipid droplet formation, photographs after culture)
Method: Mesenteric fat tissue was excised from the abdominal cavity of 3-5 week old male Sprague-Dawley rats (average body weight=100 g) and was washed three times with Hanks' balanced salt solution. The fat was minced with scissors and then incubated for 40 minutes at 37° C. in DMEM/F-12 culture medium containing 0.2% collagenase and 1.0% bovine albumin. The collagenase-digested tissue suspension was subsequently filtered through 600 μm mesh and Hanks' balanced salt solution was added. After centrifugation for 10 minutes at 800×g, the sediment was washed three times with Hanks' balanced salt solution and once with DMEM/F-12 culture medium and was then filtered through 100 μm mesh. The cell suspension thus prepared from the intraabdominal mesenteric fat was seeded to dishes at 0.5×10^5 cells/cm^2, and incubated at 37° C. and 5% CO2 in the culture medium with the indicated composition. The culture medium was changed once a day or once every two days. The culture medium was prepared by the addition of 17 mM pantothenic acid, 33 mM biotin, 100 mM ascorbic acid, 1 mM octanoic acid, 50 nM triiodothyronine, 100 unit/mL penicillin, and 100 mg/mL streptomycin to a basal culture medium of (DMEM)/F12 containing 10% NCS. Insulin and IGF-1 were added in the specified concentrations, and the resulting culture medium was used in the experiments described below.

aP2 mRNA = aP2 mRNA expression by real-time PCR
Method: (§1) Differentiation conditions 1 to 12 in FIG. 2A correspond to the 1 to 12 in FIGS. 2B, 2C, and 2D (B: photographs after culture for 7 days; C: mRNA was separated after culture for 7 days, and the level of C/EBPα mRNA expression was measured by real-time PCR (the value on day 0 of culture was set at 1); D: the level of aP2 mRNA expression was measured by real-time PCR (the value on day 7 of culture for condition 1 was set at 1)).
(§2) A continuous 7-day culture was carried out in a culture medium containing 200 ng/mL IGF-1 (normal concentration in human blood=150 to 250 ng/mL), and the amount of mRNA expression was then measured for C/EBPα (adipocyte differentiation marker), aP2 (adipocyte differentiation marker), and C/EBPβ (differentiation marker for undifferentiated adipocytes). The results are shown in FIG. 5 (A: photographs after culture for 7 days. 1: cultured with 200 ng/mL IGF-1 for 3 days and then with 22 ng/mL insulin for 4 days. 2: cultured with 200 ng/mL IGF-1 and 22 ng/mL insulin for 7 days. 3: cultured with 200 ng/mL IGF-1 for 7 days. The 1 to 3 corresponds to lanes 1 to 3 in FIGS. 5B to 5D. B: mRNA was separated after the 7-day culture and the amount of C/EBPα mRNA expression was measured by real-time PCR. The value for a culture of 3 days with 10 μg/mL insulin and then 4 days with 22 ng/mL insulin was set at 1. C: mRNA was separated after the 7-day culture and the amount of aP2 mRNA expression was measured by real-time PCR. The value for a culture of 3 days with 10 μg/mL insulin and then 4 days with 22 ng/mL insulin was set at 1. D: mRNA was separated after the 7-day culture and the amount of C/EBPβ mRNA expression was measured by real-time PCR. The value for a culture of 3 days with 10 μg/mL insulin and then 4 days with 22 ng/mL insulin was set at 1.).
The influence of various combinations of IGF-1 and insulin on VAC differentiation induction and maturation was investigated. The results are shown in FIG. 6 (A: photographs after culture for 7 days. 1: cultured with 200 ng/mL IGF-1 for 3 days and then with 2.5 ng/mL insulin for 4 days. 2: cultured with 200 ng/mL IGF-1 and 2.5 ng/mL insulin for 7 days. 3: cultured with 200 ng/mL IGF-1 for 3 days and then with 0.85 ng/mL insulin for 4 days. 4: cultured with 200 ng/mL IGF-1 and 0.85 ng/mL insulin for 7 days. B: mRNA was separated after the 7-day culture and the amount of C/EBPβ mRNA expression was measured by real-time PCR. The value for a culture of 3 days with 10 μg/mL insulin and then 4 days with 22 ng/mL insulin was set at 1. C: mRNA was separated after the 7-day culture and the amount of aP2 mRNA expression was measured by real-time PCR. The value for a culture of 3 days with 10 μg/mL insulin and then 4 days with 22 ng/mL insulin was set at 1.).

adiponectin mRNA = test: Adiponectin mRNA expression by real-time PCR
Method: The level of adiponectin mRNA expression was then examined with the aim of investigating the influence of the insulin concentration on VAC function (FIG. 3). After the VSCs had been differentiated by 10 μg/mL insulin for 3 days, they were then cultured for 4 days in the presence of 10 μg/mL insulin (lane 2), 0.2 μg/mL insulin (lane 3), 70 ng/mL insulin (lane 4), 22 ng/mL insulin (lane 5), or 7.4 ng/mL insulin (lane 6). After the 7-day culture, mRNA was separated and the amount of adiponectin mRNA expression was measured by real-time PCR. The value for the 7-day culture in the absence of insulin was set at 1. The results are shown in FIG. 3 (1: cultured for 7 days without insulin. 2: cultured for 7 days with 10 μg/mL insulin. 3: induction of differentiation for 3 days with 10 μg/mL insulin followed by culture for 4 days with 0.2 μg/mL insulin. 4: induction of differentiation for 3 days with 10 μg/mL insulin followed by culture for 4 days with 70 ng/mL insulin. 5: induction of differentiation for 3 days with 10 μg/mL insulin followed by culture for 4 days with 22 ng/mL insulin. 6: induction of differentiation for 3 days with 10 μg/mL insulin followed by culture for 4 days with 7.4 ng/mL insulin.).

adiponectin = test: Adiponectin content of the culture medium (ELISA)
Method: The conventionally used dexamethasone-based differentiation induction system was first evaluated. 2.5 μM dexamethasone and 10 μg/mL insulin or 10 μg/mL insulin was added to the medium to allow for VSC differentiation and maturation for 7 days. […] When dexamethasone was also added to the differentiation induction culture medium, single cell enlargement was promoted (FIG. 1B), although there was no difference in the differentiation efficiency. In addition, the norepinephrine-induced triglyceride degradation reaction was reduced (data not shown).
After 9-day culture with 200 ng/mL IGF-1 and different insulin concentrations, the culture medium was taken and the adiponectin content was measured by ELISA. When VSCs were cultured for 9 days with the constant presence of 200 ng/mL IGF-1 and insulin at a concentration of 10 μg/mL (lane 1), 70 ng/mL (lane 2), 22 ng/mL (lane 3), or 2.5 ng/mL (lane 4), the amount of adiponectin secretion was reduced at insulin concentrations of 70 ng/mL and above (FIG. 9A). When VSCs were cultured for the first 4 days with 200 ng/mL IGF-1 and 2.5 ng/mL insulin followed by 5 days with 200 ng/mL IGF-1 and insulin at a concentration of 10 μg/mL (lane 1), 70 ng/mL (lane 2), 22 ng/mL (lane 3), or 2.5 ng/mL (lane 4), adiponectin secretion was again reduced at insulin concentrations of 70 ng/mL and above (FIG. 9B). […]

C/EBPα mRNA = C/EBPα mRNA expression by real-time PCR
Method: as §1, §2
Additional investigations were then carried out into the IGF-1 concentration required for differentiation. Proceeding in the same manner as described above, VSCs were cultured for 7 days in the presence of 0.85 ng/mL insulin and IGF-1 at different concentrations. After culturing, mRNA was separated and the amount of C/EBPα mRNA expression was measured by real-time PCR. After culture for 7 days, mRNA was separated and the amount of C/EBPα mRNA expression and the amount of C/EBPβ mRNA expression were measured by real-time PCR. The value for the amount of mRNA expression for culture with 10 μg/mL insulin for 3 days followed by with 22 ng/mL insulin for 4 days was set at 1.

insulin receptor = test: Insulin receptor expression by immunoblotting with anti-IR antibody
Method: The amount of insulin receptor expression in the maturation process was then examined (FIG. 4). After the VSCs had been cultured for 7, 8, or 9 days, the total cell lysate (20 μg protein) was separated by SDS-PAGE and the IR was detected by immunoblotting with anti-IR antibody. In addition, actin was detected by immunoblotting with anti-actin antibody as the loading control. […] VSCs were cultured for 3 days in the presence of 10 μg/mL insulin or 200 ng/mL IGF-1, after which the total cell lysate (20 μg protein) was separated by SDS-PAGE and the insulin receptor was detected by immunoblotting with anti-insulin receptor (IR) antibody. Actin was detected by immunoblotting with anti-actin antibody as a loading control. […] After culture for 7 days, the total cell lysate (20 μg protein) was separated by SDS-PAGE and the IR was determined by immunoblotting with anti-IR antibody. Actin was detected by immunoblotting with anti-actin antibody as a loading control.

C/EBPβ mRNA = C/EBPβ mRNA expression by real-time PCR
Method: as §2, with “real-time PCR. […] D: mRNA” for “real-time PCR. The value for a culture of 3 days with 10 μg/mL insulin and then 4 days with 22 ng/mL insulin was set at 1. D: mRNA”, “real-time PCR. […]” for “real-time PCR. The value for a culture of 3 days with 10 μg/mL insulin and then 4 days with 22 ng/mL insulin was set at 1.).”
The influence of various combinations of IGF-1 and insulin on VAC differentiation induction and maturation was investigated. […] C: mRNA was separated after the 7-day culture and the amount of aP2 mRNA expression was measured by real-time PCR. […]

[2] = 7-day culture with only IGF-1 (200 ng/mL), vs 10 μg/mL insulin then 22 ng/mL insulin

amount of insulin receptor expression (insulin receptor; 3-day induction with 10 μg/mL insulin vs 200 ng/mL IGF-1 or 200 ng/mL IGF-1 and 22 ng/mL insulin): decline
insulin receptor expression (insulin receptor; 3 days 10 μg/mL insulin, maturation with 22 ng/mL, then culture with insulin at 70 ng/mL or greater vs 22 ng/mL, 7, 8 or 9 days): substantial decline
Substance: insulin
lipid droplet formation ([1]; 0.2 μg/mL insulin, 7 days (condition 3)): entirely absent
lipid droplet accumulation ([1]; 10 μg/mL insulin for 2 days followed by 0.2 μg/mL insulin, total of 7 days (condition 5)): significant decline
lipid droplet formation ([1]; 10 μg/mL insulin for 3 days, then insulin reduced to 22 ng/mL (condition 11)): same level
differentiation into adipocytes (lipid droplets) ([1]; 10 μg/mL insulin, 7 days (condition 2)): differentiation into adipocytes occurred
fat accumulation ([1]; 10 μg/mL insulin, VSC differentiation and maturation for 7 days): normal fat accumulation
lipid droplet accumulation ([1]; 3-day treatment with 10 μg/mL insulin without the ensuing 0.2 μg/mL insulin, vs system containing 0.2 μg/mL insulin): significant decline
aP2 mRNA expression level (aP2 mRNA; 10 μg/mL insulin for 3 days, then at least 22 ng/mL insulin (condition 11), vs constant 10 μg/mL insulin): the same level
aP2 mRNA expression level (aP2 mRNA; 10 μg/mL insulin for 3 days, then insulin at or below 7.4 ng/mL (condition 12), vs constant 10 μg/mL insulin): less aP2 expression
aP2 mRNA expression level (aP2 mRNA; 10 μg/mL insulin for only 2 days (condition 5), vs constant 10 μg/mL insulin): less aP2 expression
aP2 mRNA expression level (aP2 mRNA; constant presence of 0.2 μg/mL insulin, vs constant 10 μg/mL insulin (condition 2)): less aP2 expression
level of adiponectin mRNA expression (adiponectin mRNA; 10 μg/mL insulin for 3 days then 4 days 7.4 ng/mL insulin (lane 6)): reduced
level of adiponectin mRNA expression (adiponectin mRNA; 7-day culture with 10 μg/mL insulin (lane 2) vs 3 days 10 μg/mL then 4 days 0.2 μg/mL to 22 ng/mL (lanes 3 to 5)): lower level
adiponectin secretion (adiponectin; 4 days 200 ng/mL IGF-1 and 2.5 ng/mL insulin, then 5 days 200 ng/mL IGF-1 and insulin at 70 ng/mL and above): again reduced
amount of adiponectin secretion (adiponectin; 9 days, constant 200 ng/mL IGF-1 and insulin at 70 ng/mL and above (vs 22 or 2.5 ng/mL)): reduced
C/EBPα mRNA expression level (C/EBPα mRNA; 10 μg/mL insulin for 2 days (conditions 4 and 5), 7 days): did not increase
C/EBPα mRNA expression level (C/EBPα mRNA; 10 μg/mL insulin for only 3 days followed by absence of insulin for 4 days (condition 6)): did rise
C/EBPα mRNA expression level (C/EBPα mRNA; constant presence of 0.2 μg/mL insulin (condition 3), 7 days): did not increase

Substance: insulin-like growth factor-1 [IGF-1]
accumulation of lipid droplets ([1]; 200 ng/mL IGF-1 alone, 7 days): not seen
differentiation efficiency ([1]; IGF-1 concentrations of 50 ng/mL and below, plus 0.85 ng/mL insulin, 7 days): decline
amount of C/EBPβ mRNA (C/EBPβ mRNA; 7-day culture with IGF-1 alone (200 ng/mL; FIG. 5D, lane 3)): maintained
amount of C/EBPβ mRNA expression (C/EBPβ mRNA; IGF-1 concentrations of 50 ng/mL or less vs 200 ng/mL IGF-1, plus 0.85 ng/mL insulin, 7 days): increased amounts of expression
expression of aP2 mRNA (aP2 mRNA; [2]): increased
expression of C/EBPα mRNA (C/EBPα mRNA; [2]): increased
amount of C/EBPα mRNA expression (C/EBPα mRNA; as a function of the IGF-1 concentration (10 to 800 ng/mL) plus 0.85 ng/mL insulin, 7 days): no changes
